Results reported in patent US20260166169A1, “ANTIBODY-DRUG CONJUGATE, PREPARATION METHOD AND USE THEREOF” (priority 2023, published 2026).

Tested on: Detroit 562 cells
Assay: In vitro killing assay of ADC on Detroit562 cells (CCK-8)
Assay type: cell-based
Settings: Detroit 562, 5 days, 3-fold dilutions from 300 nM, CCK-8, FIG. 19
Method: Experimental Example 4: In Vitro Killing Assay of ADC on Detroit562 Cells
Detroit 562 cells (purchased from Nan Jing cobioer biosciences Co., Ltd.) were cultured so that a cell density reached to 80%. The cells were collected, plated in a 96-well plate, and the cell density was adjusted to 2-5×10^4/ml. Each well was plated with 100 μL of cells, and the ADC molecules were serially diluted 3 times with an initial concentration of 300 nM. After the dilution was completed, the ADC molecules were added to the cell culture medium and cultured for 5 days, during which the apoptosis of the cells was observed regularly. After 5 days, 15 μL of the CCK-8 kit stock solution was added to the 96-well plate and reacted in an incubator of 37° C. for 0.5-2 h. An absorbance at 450 nm was measured, and cell survival curves were drawn based on OD (optical density) readings and ADC dilution gradients.
Human IgG-DXD prepared in Comparative Example 4, Human IgG-LP1 prepared in Comparative Example 5, Human IgG-LP2 prepared in Comparative Example 7, Hu1H2-2-LP1 prepared in Example 6, Hu1H2-2-LP2 prepared in Example 8, and Hu1H2-2-DXD prepared in Comparative Example 9 were selected as ADC molecules. Wherein Human IgG was used as the isotype control of Hu1H2-2 antibody, and DXD was used as positive drug.

Compound: CC[C@@]1(O)C(=O)OCc2c1cc1n(c2=O)Cc2c-1nc1cc(F)c(C)c3c1c2[C@@H](NC(=O)OCc1ccc(NC(=O)CNC(=O)[C@H](Cc2ccccc2)NC(=O)CNC(=O)CNC(=O)CCCCCN2C(=O)C=CC2=O)cc1CN(C)C(=O)CN(C)C(=O)CN(C)C(=O)CN(C)C(=O)CN(C)C(=O)CN(C)C(=O)CN(C)C(=O)CN(C)C(=O)CN(C)C(=O)CN(C)C(=O)CN(C)C(C)=O)CC3 [LP-2]
- in vitro killing effect (cell survival curve): more excellent killing effects in vitro on Detriot562
